From patent US9750809B2, “Cancer treatment” (MOREX DEVELOPMENT PARTNERS LLP, priority 2012, dated 2017)

What was measured:
[1] = system: SCCVII squamous cell carcinomas
Procedure: Mice were euthanized when the tumour volume reached 500 mm^3; and
SCCVII murine squamous cell carcinoma cells were cultured in D-MEM enriched with 10% fetal bovine serum, 1% penicillin/streptomycin and 1% L-glutamine. Only passages 1-3 were used to initiate tumours. Cells (2×10^5 in 0.05 mL of medium) were then implanted sc into the left thighs of 20-25 g female C3H mice (Charles River Laboratories, Wilmington, Mass.).
Due to the large number of animals to be dosed and irradiated, it was necessary to split the animals into two equally sized groups: Groups A and B. Animals in each Group A were injected on day 7 after tumour implantation, while animals in each Group B were injected on day 8 post tumour implantation.
The animals in Group A were irradiated 8 days, and those in Groups B were irradiated 9 days after tumour implantation. Mice were anesthetized (sodium pentobarbital, ˜60 μg/g i.p.) and positioned for irradiation with the tumour-bearing leg extended across a 2-cm diameter collimated irradiation port. Tumours were irradiated using a single dose fraction of 32 gy at a dose-rate of 2.0 Gy/min using a Philips RT-100 set, operating at 100 kVp and 8 mA.
Tumours were measured 2-3 times per week and the mice were killed humanely when the calculated tumour volume (x^2y/2, where x is the shorter surface dimension) exceeded 500 mm^3.
Dosimetry for X-irradiation was carried out using a thimble ionization chamber applying the 1996 IPEB code of practice.

[2] = mouse, in vivo
Procedure: Direct current plasma-atomic emission spectroscopy [DCP-AES] (ARL/Fisons Model SS-7) was used (detection limit: 0.1 μg B/mL) to determine boron concentrations in tissues of individual mice. Samples (50-130 mg) were digested at 60° C. with sulfuric acid:nitric acid (1:1). Triton X-100 and water were added to give final concentrations of ˜50 mg tissue/mL, 15% total acid v/v and 5% Triton X-100 v/v. […] It is known that the ether linkages between the porphyrin and carborane cages remain intact in vivo.

[3] = 150 mg/kg MTL005 + 32 Gy vs 32 Gy alone
[4] = 150 mg/kg MTL005 i.p. one day prior to 32 Gy X-rays, 11 mice

## copper meso-5,15-bis[3-[(1,2-dicarba-closo-dodecaboranyl)methoxy]phenyl]-meso-10,20-dinitroporphyrin [MTL005]
[1]; [3]
  Number of surviving mice compared with X-rays alone: higher
  Tumour control compared with X-rays alone (Kaplan-Meier, FIG. 2): greater tumour control
[1]; [4]
  % Tumour control: 54.5%
  Controlled tumours (volume of 0 mm^3), number of mice: 6
  Mice alive at 62 days with observable tumours: 2
[1]; 32 Gy
  Number of controlled tumours compared to radiation alone: doubled
[2]
  Retention of active sensitiser in the tumour after single administration: still a significant concentration of active sensitiser in the tumour
